# Patent publication US20230109839A1, “THERAPEUTIC AGENT FOR TAUOPATHIES” (SUMITOMO PHARMA CO., LTD., priority 2020, published 2023)
# Molecular target: T1, human Nav1.1 (Homo sapiens, UniProt P35498)
# T1 construct: host or cells: HEK293
# Assay: Amplification of Nav1.1-derived voltage-gated sodium current (Nav1.1 current), automated patch clamp (Test 1)
# Type: cell-based
# Conditions: Concentration for evaluation 1 μM; HEK293 cell line stably expressing human Nav1.1
# Experimental: Test 1: Evaluation of the Amplification of Nav1.1-Derived Voltage-Gated Sodium Current (Nav1.1 Current) by Using a Cell Line Stably Expressing Human Nav1.1
# (1) Preparation of Test Compound Solution
# Test compounds were prepared by dissolving in DMSO at 200 times of the concentration at evaluation, and diluting the obtained solution to twice the concentration of evaluation with an extracellular fluid (135 mmol/L NaCl, 4 mmol/L KCl, 1 mmol/L MgCl2, 5 mmol/L CaCl2, 5 mmol/L Glucose, 10 mmol/L HEPES).
# (2) Induction and Measurement of Nav1.1 Current
# A HEK293 cell line stably expressing human Nav1.1 (cat #CYL3009, Eurofins DiscoverX Products, LLC, Human Embryonic Kidney 293) was purchased, and used in the present test. Nav1.1 current was induced by stimulating Ramp wave voltage. Detection of current which accompanied with the stimulation of voltage was carried out by a patch-clamp voltage-clamp method using HTS automated patch clamp system (SynchroPatch 768PE, Nanion Technologies GmbH, Germany). Only cells with more than 500 pA of voltage-gated sodium channel current were used for the evaluation of the activity of compounds on Nav1.1 current because there was the possibility that currents derived from endogenous voltage-gated sodium channels accounted for large proportion in cells with less than 500 pA of voltage-gated sodium channel current which was induced by stimulating Ramp wave voltage.
# (3) Pharmacological Effect on Nav1.1 Current
# The effect of test compounds on the amplification of Nav1.1-derived voltage-gated sodium current was evaluated by using a cell line stably expressing human Nav1.1 and HTS automated patch clamp system. In other words, test compounds were added in an extracellular fluid containing 1% DMSO, and evaluated as a change of the peak value of Nav1.1 current and the area under the curve (AUC).
# (4) Method for Pharmacological Evaluation
# The Nav1.1 current amplification rates of test compounds were calculated by the following formula:
# Nav1.1 current amplification rate (%)=100×[the peak value of Nav1.1 current or the area under the curve after the addition of test compounds]/[the peak value of Nav1.1 current or the area under the curve before the addition of test compounds]−100
row,SMILES,Nav1.1 current amplification rate (%)
1,CN(c1cnc2cnn(CC(=O)Nc3ccc(C#N)nc3)c2n1)C1CC1 [Example 709],44
2,CC(=O)N1CC(c2cccc3c2CCN3C(=O)Cn2ncc3ncc(N(C)C4CCC4)nc32)C1 [Example 695],219
3,Cc1cn(Cc2cccc3c2CCN3C(=O)Cn2nc(C3=CCC(C)CC3)ccc2=O)cn1 (stereo not drawn) [Example 288],115
4,Cc1nc2cc(NC(=O)Cn3ncc4ncc(N(C)C5CCCC5)nc43)ccc2o1 [Example 675],36
5,Cc1cn2ccc(NC(=O)Cn3ncc4ncc(N(C)C5CC5)nc43)cc2n1 [Example 703],27
6,CC(C)CN(C)c1cnc2cnn(CC(=O)Nc3ccc4ncnn4c3)c2n1 [Example 661],12

# Same assay, conditions: Concentration for evaluation 3 μM; HEK293 cell line stably expressing human Nav1.1
row,SMILES,Nav1.1 current amplification rate (%)
1,COCC1(N(C)c2cnc3cnn(CC(=O)Nc4ccn5ncnc5c4)c3n2)CC1 [Example 629],15
2,CC1CC=C(c2ccc(=O)n(CC(=O)Nc3ccc4oc(CN(C)C)nc4c3)n2)CC1 (stereo not drawn) [Example 324],50
3,CN(c1cnc2cnn(CC(=O)N3CCN(c4cccc(F)c4)CC3)c2n1)C1CC1 [Example 714],11

# Same assay, conditions: Concentration for evaluation 10 μM; HEK293 cell line stably expressing human Nav1.1
row,SMILES,Nav1.1 current amplification rate (%)
1,Cc1nc2cc(NC(=O)Cn3nc(N4CCC(C)CC4)ccc3=O)ccc2s1 [Example 88],183
2,Cc1ccc(N2CCN(C(=O)Cn3nc(C4=CCC(C)CC4)ccc3=O)CC2)cn1 (stereo not drawn) [Example 396],136
3,N#Cc1ccc(NC(=O)Cn2nc(N3CCC4(CCC4)CC3)ccc2=O)cc1 [Example 26],364
4,CC1(C)CC=C(c2ccc(=O)n(CC(=O)N3CCC4(CCOCC4)CC3)n2)CC1 [Example 441],30
5,Cc1ccc(N2CCN(C(=O)Cn3nc(C4=CCC(C)(C)CC4)ccc3=O)CC2)cn1 [Example 443],114
6,CC1CCN(c2ccc(=O)n(CC(=O)Nc3ccn4nccc4c3)n2)CC1 [Example 71],131
7,CCC1(C)CCN(c2ccc(=O)n(CC(=O)Nc3ccc(C#N)cc3)n2)CC1 [Example 28],158
8,N#Cc1ccc(NC(=O)Cn2nc(N3CCCCCC3)ccc2=O)cc1 [Example 11],205
9,Cc1ccc(-c2ccc(=O)n(CC(=O)N3CCc4cc(N5CCOCC5)ccc43)n2)cc1 [Example 158],122

# Same assay, conditions: Concentration for evaluation 50 μM; HEK293 cell line stably expressing human Nav1.1
row,SMILES,Nav1.1 current amplification rate (%)
1,CC1CC=C(c2ccc(=O)n(CC(=O)NC3CCN(c4ccccc4)C3)n2)CC1 (stereo not drawn) [Example 369],10
2,CC1CC=C(c2ccc(=O)n(CC(=O)N3CC=C(c4ccccn4)C3)n2)CC1 (stereo not drawn) [Example 385],42

# Same assay, conditions: HEK293, concentration for evaluation 0.3 μM; HEK293 stably expressing human Nav1.1; read-out: Nav1.1 current amplification rate (%)
row,SMILES,activation at 0.3 µM [%]
1,CN(c1ccc2cnn(CC(=O)N3CCc4c(C5CC5)cccc43)c2n1)C1CC1 [Example 887],173

# Same assay, conditions: concentration for evaluation 1 μM; HEK293 stably expressing human Nav1.1
row,SMILES,Nav1.1 current amplification rate (%)
1,CC1CCN(c2ccc3cnn(CC(=O)Nc4ccc5ncnn5c4)c3n2)CC1 [Example 872],38
2,CC(C)c1ccc(NC(=O)Cn2ncc3cnc(N4CCC5(CC5)C(F)(F)C4)nc32)cn1 [Example 829],54
3,N#Cc1ccc(NC(=O)Cn2ncc3cnc(N4CCC5(CC5)C(F)(F)C4)nc32)cn1 [Example 823],226
4,CC1CCN(c2ccc3cnn(CC(=O)Nc4ccn5ncnc5c4)c3n2)CC1 [Example 853],82
5,O=C(Cn1ncc2cnc(N3CCC4(CC4)C(F)(F)C3)nc21)Nc1ccc(-n2ccnc2)nc1 [Example 824],240
6,O=C(Cn1ncc2ccc(-c3ccc(F)cc3)nc21)Nc1ccn2ccnc2c1 [Example 866],16
